US12157730B2, “Heteroaryl derivative, method for producing same, and pharmaceutical composition comprising same as effective component” (VORONOI INC., priority 2019, dated 2024)

Target: T1, Ba/F3 cell EGFR Exon20 ins NPH (Homo sapiens, UniProt P00533, INS773NPH)
T1 construct: expressed in transfected cells; host or cells: Ba/F3
Test: Ba/F3 cell proliferation suppression, EGFR Exon20 ins NPH
Type: cell-based
Conditions: GI50 class; Ba/F3 cell line with NPH inserted at Exon20 of EGFR; 72 hours
Summary of the method: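 Seed 3000–5000 cells/well; after 24 h add compound (12 conc., 0.3 nM–50 um final); incubate 72 h; add CellTiter-Glo, 10 min room temperature; read luminescence; GI50 from % growth vs control, triplicate.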

SMILES | Ba/F3 (NPH) Activity
C=CC(=O)Nc1cc(Nc2cc(N3OCC[C@@H]3c3ccc(F)cc3F)ncn2)c(OC)cc1-n1cnc(C)c1 [compound 386, N-(5-((6-((R)-3-(2,4-difluorophenyl)isoxazolidine-2-yl)pyrimidine-4-yl)amino)-4-methoxy-2-(4-methyl-1H-imidazole-1-yl)phenyl)acrylamide] | B (50 nM ≤ GI50 < 500 nM)
C=CC(=O)Nc1cc(Nc2cc(N3OCC[C@@H]3c3ccc(Cl)cc3F)ncn2)c(OC)cc1N1CCC(N(C(=O)C=C)C2CCN(C(C)C)CC2)CC1 [compound 402, N-(1-(2-acrylamido-4-((6-((R)-3-(4-chloro-2-fluorophenyl)isoxazolidine-2-yl)pyrimidine-4-yl)amino)-5-methoxyphenyl)piperidine-4-yl)-N-(1-isopropylpiperidine-4-yl)acrylamide] | A (GI50 < 50 nM)
C=CC(=O)Nc1cc(Nc2cc(N3OCC[C@@H]3c3ccc(F)cc3F)ncn2)c(OC)cc1N1CCC(N2CC[C@@H](N(C)C)C2)CC1 [compound 429, N-(5-((6-((R)-3-(2,4-difluorophenyl)isoxazolidine-2-yl)pyrimidine-4-yl)amino)-2-(4-((R)-3-(dimethylamino)pyrolidine-1-yl)piperidine-1-yl)-4-methoxyphenyl) acrylamide] | A (GI50 < 50 nM)
C=CC(=O)Nc1cc(Nc2cc(N3OCC[C@@H]3c3cccc(F)c3F)ncn2)c(OC)cc1N1CCN(C(C)C)CC1 [compound 334, N-(5-((6-((R)-3-(2,3-difluorophenyl)isoxazolidine-2-yl)pyrimidine-4-yl)amino)-2-(4-isopropylpiperazine-1-yl)-4-methoxyphenyl) acrylamide] | A (GI50 < 50 nM)
C=CC(=O)Nc1cc(Nc2cc(N3OCC[C@H]3c3c(F)cccc3F)ncn2)c(OC)cc1N1CCC(N2CCOCC2)CC1 [compound 897, N-(5-((6-((S)-3-(2,6-difluorophenyl)isoxazolidine-2-yl)pyrimidine-4-yl)amino)-4-methoxy-2-(4-morpholinopiperidine-1-yl)phenyl)acrylamide] | C (500 nM ≤ GI50 < 5000 nM)
C=CC(=O)Nc1cc(Nc2cc(N3OCC[C@H]3Cc3cccnc3)ncn2)c(OC)cc1N1CCC(N2CCN(C3CC3)CC2)CC1 [compound 988, N-(2-(4-(4-cyclopropylpiperazine-1-yl)piperidine-1-yl)-4-methoxy-5-((6-((R)-3-(pyridine-3-ylmethyl)isoxazolidine-2-yl)pyrimidine-4-yl)amino)phenyl) acrylamide] | B (50 nM ≤ GI50 < 500 nM)
C=CCN1CCN(C2CCN(c3cc(OC)c(Nc4cc(N5OCC[C@@H]5c5cccc(Cl)c5F)ncn4)cc3NC(=O)C=C)CC2)CC1 [Example 90, N-(2-(4-(4-allylpiperazine-1-yl)piperidine-1-yl)-5-((6-(R-3-(3-chloro-2-fluorophenyl)isoxazolidine-2-yl)pyrimidine-4-yl)amino)-4-methoxyphenyl) acrylamide] | A (GI50 < 50 nM)
C=CC(=O)Nc1cc(Nc2cc(N3OCC[C@@H]3Cc3ccccc3)ncn2)c(OC)cc1N1CCC(N(C)C)CC1 [compound 951, N-(5-((6-((S)-3-benzylisoxazolidine-2-yl)pyrimidine-4-yl)amino)-2-(4-(dimethylamino)piperidine-1-yl)-4-methoxyphenyl) acrylamide] | A (GI50 < 50 nM)
C#Cc1cccc([C@H]2CCON2c2cc(Nc3cc(NC(=O)C=C)c(N4CCC(N5C[C@H]6C[C@@H]5CO6)CC4)cc3OC)ncn2)c1 [compound 619, N-(2-(4-((1R,4R)-2-oxa-5-azabicyclo [2.2.1]heptane-5-yl)piperidine-1-yl)-5-((6-((R)-3-(3-ethynylphenyl)isoxazolidine-2-yl)pyrimidine-4-yl)amino)-4-methoxyphenyl) acrylamide] | A (GI50 < 50 nM)
C=CC(=O)Nc1cc(Nc2cc(N3OCC[C@@H]3c3c(F)ccc(F)c3F)ncn2)c(OC)cc1N1CCC(N2C[C@@H]3C[C@H]2CO3)CC1 [compound 642, N-(2-(4-((1S,4S)-2-oxa-5-azabicyclo[2.2.1]heptane-5-yl)piperidine-1-yl)-4-methoxy-5-((6-((R)-3-(2,3,6-trifluorophenyl)isoxazolidine-2-yl)pyrimidine-4-yl)amino)phenyl)acrylamide] | A (GI50 < 50 nM)
C=CC(=O)Nc1cc(Nc2cc(N3OCC[C@@H]3c3c(F)ccc(F)c3F)ncn2)c(OC)cc1N1CCC(N2CCN(C3CC3)[C@@H](C)C2)CC1 [Example 167, N-(2-(4-((S)-4-cyclopropyl-3-methylpiperazine-1-yl)piperidine-1-yl)-4-methoxy-5-((6-((R)-3-(2,3,6-trifluorophenyl)isoxazolidine-2-yl)pyrimidine-4-yl)amino)phenyl)acrylamide] | A (GI50 < 50 nM)

Other lines, results leading:

Ba/F3 (NPH) Activity | SMILES
C (500 nM ≤ GI50 < 5000 nM) | C=CC(=O)Nc1cc(Nc2cc(N3OCC[C@H]3c3c(F)cccc3F)ncn2)c(OC)cc1N1CCC(N(C)C)CC1 [compound 308, N-(5-((6-((S)-3-(2,6-difluorophenyl)isoxazolidine-2-yl)pyrimidine-4-yl)amino)-2-(4-(dimethylamino)piperidine-1-yl)-4-methoxyphenyl) acrylamide]
A (GI50 < 50 nM) | C=CC(=O)Nc1cc(Nc2cc(N3OCC[C@@H]3c3cc(F)cc(F)c3)ncn2)c(OC)cc1N1CCN(C)[C@@H](C)C1 [compound 916, N-(5-((6-((R)-3-(3,5-difluorophenyl)isoxazolidine-2-yl)pyrimidine-4-yl)amino)-2-((S)-3,4-dimethylpiperazine-1-yl)-4-methoxyphenyl) acrylamide]
A (GI50 < 50 nM) | C=CC(=O)Nc1cc(Nc2cc(N3OCC[C@@H]3c3ccc(Cl)cc3F)ncn2)c(OC)cc1N1CCC(N2CCN(C)CC2)CC1 [compound 454, N-(5-((6-((R)-3-(4-chloro-2-fluorophenyl)isoxazolidine-2-yl)pyrimidine-4-yl)amino)-4-methoxy-2-(4-(4-methylpiperazine-1-yl)piperidine-1-yl)phenyl) acrylamide]
B (50 nM ≤ GI50 < 500 nM) | C=CC(=O)Nc1cc(Nc2cc(N3OCC[C@@H]3c3cc(F)cc(F)c3)ncn2)c(OC)cc1N1CC(N2CCN(C3CC3)CC2)C1 [compound 588, N-(2-(3-(4-cyclopropylpiperazine-1-yl)azetidine-1-yl)-5-((6-((R)-3-(3,5-difluorophenyl)isoxazolidine-2-yl)pyrimidine-4-yl)amino)-4-methoxyphenyl) acrylamide]
A (GI50 < 50 nM) | C=CC(=O)Nc1cc(Nc2cc(N3OCC[C@@H]3c3ccc(Cl)cc3)ncn2)c(OC)cc1N1CCC(N2CCOCC2)CC1 [compound 782, N-(5-((6-((R)-3-(4-chlorophenyl)isoxazolidine-2-yl)pyrimidine-4-yl)amino)-4-methoxy-2-(4-morpholinopiperidine-1-yl)phenyl)acrylamide]
A (GI50 < 50 nM) | C=CC(=O)Nc1cc(Nc2cc(N3OCC[C@@H]3c3ccc(F)c(Cl)c3)ncn2)c(OC)cc1N1CCC(N(C)C)CC1 [compound 755, N-(5-((6-((R)-3-(3-chloro-4-fluorophenyl)isoxazolidine-2-yl)pyrimidine-4-yl)amino)-2-(4-(dimethylamino)piperidine-1-yl)-4-methoxyphenyl) acrylamide]
A (GI50 < 50 nM) | C#Cc1cccc([C@H]2CCON2c2cc(Nc3cc(NC(=O)C=C)c(N4CCC(N(C)C)CC4)cc3OC)ncn2)c1 [compound 647, N-(2-(4-(dimethylamino)piperidine-1-yl)-5-((6-((R)-3-(3-ethynylphenyl)isoxazolidine-2-yl)pyrimidine-4-yl)amino)-4-methoxyphenyl) acrylamide]
A (GI50 < 50 nM) | C=CC(=O)Nc1cc(Nc2cc(N3OCC[C@@H]3c3cccc(F)c3F)ncn2)c(OC)cc1N1CCO[C@@H](C)C1 [compound 888, N-(5-((6-((R)-3-(2,3-difluorophenyl)isoxazolidine-2-yl)pyrimidine-4-yl)amino)-4-methoxy-2-((S)-2-methylmorpholino)phenyl)acrylamide]
A (GI50 < 50 nM) | C=CC(=O)Nc1cc(Nc2cc(N3OCC[C@@H]3c3cc(F)cc(F)c3)ncn2)c(OC)cc1N1CC[C@@H](CN(C)C)C1 [compound 625, N-(5-((6-((R)-3-(3,5-difluorophenyl)isoxazolidine-2-yl)pyrimidine-4-yl)amino)-2-((S)-3-((dimethylamino)methyl)pyrolidine-1-yl)-4-methoxyphenyl) acrylamide]
A (GI50 < 50 nM) | C=CC(=O)Nc1cc(Nc2cc(N3OCC[C@@H]3c3ccc(F)c(Cl)c3)ncn2)c(OC)cc1N1C[C@@H]2CCN(C)[C@@H]2C1 [compound 316, N-(5-((6-((R)-3-(3-chloro-4-fluorophenyl)isoxazolidine-2-yl)pyrimidine-4-yl)amino)-4-methoxy-2-((3aS,6aS)-1-methylhexahydropyrrolo [3,4-b]pyrrole-5(1H)-yl)phenyl)acrylamide]
B (50 nM ≤ GI50 < 500 nM) | C=CC(=O)Nc1cc(Nc2cc(N3OCC[C@@H]3c3ccc(F)c(Cl)c3F)ncn2)c(OC)cc1N1C[C@@H](C)O[C@@H](C)C1 [compound 667, N-(5-((6-((R)-3-(3-chloro-2,4-difluorophenyl)isoxazolidine-2-yl)pyrimidine-4-yl)amino)-2-((2S,6R)-2,6-dimethylmorpholino)-4-methoxyphenyl) acrylamide]
